Results on twelve compounds are retold here after patent US20260232823A1, “AZA-BENZAZEPINE IMMUNOCONJUGATES, AND USES THEREOF” (BOLT BIOTHERAPEUTICS, INC., priority 2023, published 2026).

Data set [1] can be described thus: hydrolysis of the amidine group to lactam in PBS buffer. It is filed as physicochemical. On the procedure: (§1) The hydrolytic degradation rates of benzazepine and 7-azabenzazepine compounds were directly compared in PBS (pH 7.4) at 37° C. to mimic in vivo effects and in formulation buffer to simulate storage and lifetime effects. […] The half-lives (t½) of aza-benzazepine compounds azaBa-6 and azaBz-8 were 30 days and 40 days, respectively. […] The amount of lactam is normalized for each sample at the start (to) for easier rate comparisons. The 7-aza modification is stabilizing in PBS and formulation buffer by about 5-fold relative to the corresponding benzazepine compounds.

Data set [2] can be described thus: degradation of amidine to lactam in human plasma. It is filed as in vitro ADME. To be noted: human plasma at room temperature after 24 hours. On the procedure: Amidine benzazepine comparator compound CBz-3 (Table 1b) degrades in PBS buffer (pH 7.4) at 40° C. to produce lactam benzazepine comparator compound CBz-5 (Table 1b) at 90% at 17 days. […] In human plasma at room temperature after 24 hours, 15% of CBz-3 degrades to CBz-5.

The subject of data set [3] is human TLR7 or human TLR8. Put plainly: HEK Reporter Assay (TLR 7/8, receptor not separated). Format: cell-based. To be noted: lactam comparator compounds. The source says: It was discovered that the amidine functional group of benzazepine adjuvant compounds, moieties conjugated to antibodies as immunoconjugates (WO 2020/252294; WO 2021/067242; WO 2022/125884; WO 2022/125891; WO 2022/125904; WO 2022/125908; WO 2022/125915), undergoes hydrolysis to the lactam functional group.
(§2) HEK293 reporter cells expressing human TLR7 or human TLR8 were purchased from Invivogen and vendor protocols were followed for cellular propagation and experimentation. Briefly, cells were grown to 80-85% confluence at 5% CO2 in DMEM supplemented with 10% FBS, Zeocin, and Blasticidin. Cells were then seeded in 96-well flat plates at 4×10^4 cells/well with substrate containing HEK detection medium and immunostimulatory molecules. Activity was measured using a plate reader at 620-655 nm wavelength.

The target in data set [4] is T1, human TLR7 (Homo sapiens, UniProt Q9NYK1).
T1 construct: host or cells: HEK293 NFKB reporter cells
T1 sequence (Q9NYK1 27-1049): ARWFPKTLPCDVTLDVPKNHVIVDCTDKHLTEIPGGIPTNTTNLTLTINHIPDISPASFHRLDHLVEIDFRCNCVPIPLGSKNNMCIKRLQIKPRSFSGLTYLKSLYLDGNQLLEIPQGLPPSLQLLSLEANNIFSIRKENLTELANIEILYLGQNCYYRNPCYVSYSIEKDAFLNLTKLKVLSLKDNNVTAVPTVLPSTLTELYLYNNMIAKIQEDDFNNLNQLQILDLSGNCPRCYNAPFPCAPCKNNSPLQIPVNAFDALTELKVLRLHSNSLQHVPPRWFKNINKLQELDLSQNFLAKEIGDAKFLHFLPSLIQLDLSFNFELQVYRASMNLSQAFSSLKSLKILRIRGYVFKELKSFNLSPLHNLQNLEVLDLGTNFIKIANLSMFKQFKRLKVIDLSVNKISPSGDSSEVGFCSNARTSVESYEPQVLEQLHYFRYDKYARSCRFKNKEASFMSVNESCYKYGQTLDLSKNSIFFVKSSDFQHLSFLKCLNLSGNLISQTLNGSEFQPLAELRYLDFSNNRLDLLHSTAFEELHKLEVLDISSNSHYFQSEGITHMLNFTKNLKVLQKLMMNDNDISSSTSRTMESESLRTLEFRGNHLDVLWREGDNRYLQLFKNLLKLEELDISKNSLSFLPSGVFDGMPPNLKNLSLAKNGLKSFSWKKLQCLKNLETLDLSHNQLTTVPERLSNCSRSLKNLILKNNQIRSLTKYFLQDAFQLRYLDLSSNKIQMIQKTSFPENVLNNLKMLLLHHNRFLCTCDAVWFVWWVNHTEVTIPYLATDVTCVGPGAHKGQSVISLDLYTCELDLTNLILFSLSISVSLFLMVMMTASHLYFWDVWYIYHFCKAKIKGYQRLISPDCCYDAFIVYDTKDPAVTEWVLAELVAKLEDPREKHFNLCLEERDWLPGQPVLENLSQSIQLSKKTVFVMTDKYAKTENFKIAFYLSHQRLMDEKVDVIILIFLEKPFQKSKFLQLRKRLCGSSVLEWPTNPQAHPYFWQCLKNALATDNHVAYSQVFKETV
The data set is described as follows: HEK Reporter Assay, HEK293 NFKB reporter cells expressing human TLR7. It is filed as cell-based. On the procedure: (§3) Exemplary aza-benzazepine compounds (azaBza) of Table 1a and comparator compounds (CBz) of Table 1b were synthesized, purified, and characterized by mass spectrometry and shown to have the expected mass. Additional experimental procedures are found in the Examples. Activity against HEK293 NFKB reporter cells expressing human TLR7 or human TLR8 was measured according to Example 202.
as §2
On the technique in general: A reporter such as luciferase makes a cellular process visible.

Data set [5] deals with T2, human TLR8 (Homo sapiens, UniProt Q9NR97).
T2 construct: host or cells: HEK293 NFKB reporter cells
T2 sequence (Q9NR97 27-1041): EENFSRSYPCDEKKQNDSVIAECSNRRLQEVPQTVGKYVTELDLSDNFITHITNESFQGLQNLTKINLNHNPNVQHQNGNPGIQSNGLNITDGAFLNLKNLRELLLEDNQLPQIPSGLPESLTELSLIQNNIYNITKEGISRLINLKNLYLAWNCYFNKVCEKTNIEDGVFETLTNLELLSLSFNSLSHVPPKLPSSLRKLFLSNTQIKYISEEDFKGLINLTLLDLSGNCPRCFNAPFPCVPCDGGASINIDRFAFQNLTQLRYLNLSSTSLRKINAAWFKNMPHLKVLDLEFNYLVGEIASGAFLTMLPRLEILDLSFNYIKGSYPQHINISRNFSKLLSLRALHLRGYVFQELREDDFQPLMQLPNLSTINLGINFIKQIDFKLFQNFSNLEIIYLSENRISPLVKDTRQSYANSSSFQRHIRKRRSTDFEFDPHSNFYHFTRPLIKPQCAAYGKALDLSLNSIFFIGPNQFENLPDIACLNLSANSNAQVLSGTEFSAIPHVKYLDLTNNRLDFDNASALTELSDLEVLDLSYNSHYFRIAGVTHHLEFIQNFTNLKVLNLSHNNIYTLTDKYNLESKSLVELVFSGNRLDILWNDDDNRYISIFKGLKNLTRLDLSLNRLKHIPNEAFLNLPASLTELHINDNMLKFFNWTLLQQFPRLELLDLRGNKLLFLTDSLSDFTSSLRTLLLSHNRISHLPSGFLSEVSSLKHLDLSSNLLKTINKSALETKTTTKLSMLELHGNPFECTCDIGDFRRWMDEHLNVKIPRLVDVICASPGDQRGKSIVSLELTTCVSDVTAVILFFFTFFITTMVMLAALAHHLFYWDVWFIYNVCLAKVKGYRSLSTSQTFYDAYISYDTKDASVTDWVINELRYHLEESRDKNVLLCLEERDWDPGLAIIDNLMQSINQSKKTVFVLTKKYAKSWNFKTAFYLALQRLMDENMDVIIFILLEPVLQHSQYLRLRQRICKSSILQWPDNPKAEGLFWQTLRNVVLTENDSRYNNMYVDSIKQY
Put plainly: HEK Reporter Assay, HEK293 NFKB reporter cells expressing human TLR8. Format: cell-based. To be noted: read-out: EC50 against TLR8. On the procedure:
as §3, §2

Data set [6] is described as follows: hydrolysis of the amidine group to lactam in formulation buffer. It is filed as physicochemical. The following applies: formulation buffer pH 6, 22° C.; read-out: t ½ in formulation buffer (pH 6) at 22° C. (converted). On the procedure: A nitrogen at the 7-position is stabilizing and slows hydrolysis in aza-benzazepine compounds with a variety of substituents at the 8-position. […] The amount of lactam is normalized for each sample at the start (to) for easier rate comparisons.
as §1

The mark [7] stands for this setting: PBS (pH 7.4) at 37° C., read-out: half-lives (t½), hydrolytic degradation (converted).
Where [8] appears, read: PBS pH 7.4, 37° C., read-out: t ½ in PBS (pH 7.4) at 37° C. (converted).

In the case of `CCCN(OCC)C(=O)C1=Cc2ccc(-c3cnc(CN)nc3)cc2N=C(N)C1` [CBz-2, reference compound], in data set [1] (setting [7]), the half-life was 6 days.
`CCCN(OCC)C(=O)C1=Cc2ccc(-c3cnc(CNC(=O)CCOCCOCCOCCOCCOCCOCCOCCOCCOCCOCCC(=O)O)cn3)cc2N=C(N)C1` [CBz-3]: the “degraded to lactam (CBz-5)” value in data set [2] was 15%.
Turning to `CCCN(OCC)C(=O)C1=Cc2ccc(C(=O)NCCOC)cc2N=C(N)C1` [CBz-7, reference compound], the half-life in data set [1] (setting [7]) is 8 days.
With `CCCN(OCC)C(=O)C1=Cc2ccc(-c3cnc(CN)nc3)cc2NC(=O)C1` [CBz-8], in data set [3], the “activity in the HEK assay (TLR 7/8 agonist)” value is “inactive”.
On to `CCCN(OCCNC(=O)NC1CCC1)C(=O)C1=Cc2ccc(-c3cnc(CN)nc3)cc2NC(=O)C1` [CBz-9], for which the “activity in the HEK assay (TLR 7/8 agonist)” value in data set [3] was “inactive”.
Usually EC50 stands for the concentration at which the effect is half-maximal. Turning to `CCCN(CCC)C(=O)C1=Cc2ccncc2N=C(N)C1` [azaBz-2], the “response against TLR7” value in data set [4] was “no response”. Besides, the EC50 in data set [5] was found to be 5500 nM.
Consider `CCCN(OCCNC(=O)OC(C)(C)C)C(=O)C1=Cc2cnc(C(=O)O)cc2N=C(N)C1` [azaBz-3, 2-amino-4-((2-((tert-butoxycarbonyl)amino)ethoxy)(propyl)carbamoyl)-3H-pyrido[4,3-b]azepine-8-carboxylic acid], for which the values for the half-life in data set [6] and in data set [1] (setting [8]) were 30 days and 20 days, respectively.
With `CCCN(OCCNC(=O)OC(C)(C)C)C(=O)C1=Cc2cnc(S(=O)(=O)O)cc2N=C(N)C1` [azaBz-5], the half-life in data set [6] was 50 days; in data set [1] (setting [8]) it was 70 days.
As for `CCCN(OCC)C(=O)C1=Cc2cnc(-c3cnc(CN)nc3)cc2N=C(N)C1` [azaBz-6, 2-amino-8-(2-(aminomethyl)pyrimidin-5-yl)-N-ethoxy-N-propyl-3H-pyrido[4,3-b]azepine-4-carboxamide], the half-life in data set [6] and in data set [1] (setting [7]) was 30 days in each case.
Regarding `CCCN(OCC)C(=O)C1=Cc2cnc(S(=O)(=O)NCCOC)cc2N=C(N)C1` [azaBz-7], the half-life in data set [6] and in data set [1] (setting [8]) was 100 days throughout.
On to `CCCN(OCC)C(=O)C1=Cc2cnc(S(=O)(=O)N(C)CCOC)cc2N=C(N)C1` [azaBz-8], for which the half-life in data set [6] and in data set [1] (setting [7]) was 40 days throughout.
Regarding `CCCN(OCCNC(=O)OC(C)(C)C)C(=O)C1=Cc2ccncc2N=C(N)C1` [azaBz-24], the EC50 in data set [4] (read-out: EC50 against TLR7) was determined as 842 nM; in data set [5], 196 nM.
